Measured values taken from patent US20260097043A1, “NOVEL FORMULATIONS AND VEHICLES” (WisTa Laboratories Ltd., priority 2022, published 2026).

Columns and labels:
[1] = system: huntingtin derivative containing a polyglutamine stretch of 102 residues; conditions: tested at 0, 10 and 100 μM; zebrafish; van Bebber et al. 2010; cited from earlier work
TDP-43 = conditions: 0.05 μM MT; SH-SY5Y cells; Yamashita et al 2009; cited from earlier work
[2] = 4 mg twice weekly; prior-filed PCT/EP2023/064369; cited from earlier work
[3] = format: in vivo, human; conditions: 4 mg MTC approximately twice weekly; MCI to moderate AD
Experimental: Prior-filed PCT/EP2023/064369 (Example 3) describes the structure of a phase 3 clinical trial in mild to moderate AD in which different arms of participants were treated with MTC and LMTM respectively. This was a Phase 3, randomized, double-blind, outpatient trial to evaluate the safety, efficacy, and tolerability of LMTM in participants with severity ranging from mild cognitive impairment (MCI) to moderate AD. The MTC minipill was intended as a urinary discolourant placebo (in combination with a true placebo i.e. a blank minipill lacking any MTC or LMTM). […] Of patients receiving MTC 4 mg twice weekly, the majority (85%) were unexpectedly found to have blood levels of active drug above the threshold needed to produce a clinical effect.

[4] = Baddeley et al., 2015, cited from earlier work

CN(C)c1ccc2nc3ccc(N(C)C)cc3[s+]c2c1 [MT, N3,N3,N7,N7-tetramethylphenothiazin-5-ium-3,7-diamine]
formation of huntingtin polyglutamine aggregates [1]: prevented the formation of such aggregates in zebrafish in a dose dependent manner
reduction of the number of TDP-43 aggregates (TDP-43): 50%

CN(C)c1ccc2nc3ccc(N(C)C)cc3[s+]c2c1 [MTC, 3,7-bisdimethylaminophenazothionium chloride]
therapeutic benefits in treating Alzheimer's disease [2]: showed therapeutic benefits
clinical benefit [3]: showed clinical benefit

CN(C)c1ccc2c(c1)Sc1cc(N(C)C)ccc1N2 [LMTM, leuco-methylthioninium bis(hydromethanesulfonate)]
pharmaceutic properties (solubility and pKa) [4]: superior pharmaceutic properties in terms of solubility and pKa
absorption limitations ([4]; compared with the MT+ form): not subject to the absorption limitations of the MT^+ form
